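All cell lines were grown in 96-well plates and treated with compound for 48 hours. GI50 = concentration required for 50% inhibition of growth.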 The source made the active and inactive calls. No stated cut-off is given here; in the data, active = GI50 up to about 1.1 µM and inactive = higher.
Legend:
Test in all cases: NCI anticancer screen, dose series, 48 h
SR = system: SR
EKVX = system: EKVX
LOX IMVI = system: LOX IMVI
HOP-62 = system: HOP-62
SK-MEL-28 = system: SK-MEL-28
SNB-19 = system: SNB-19
SW-620 = system: SW-620
SF-295 = system: SF-295
UO-31 = system: UO-31
UACC-62 = system: UACC-62
HL-60 = system: HL-60
SK-OV-3 = system: SK-OV-3
HOP-92 = system: HOP-92
NCI-H460 = system: NCI-H460
SNB-75 = system: SNB-75
U-251 = system: U-251
SF-539 = system: SF-539
OVCAR-3 = system: OVCAR-3
MCF7 = system: MCF7

SMILES | GI50 (SR) | GI50 (EKVX) | GI50 (LOX IMVI) | GI50 (HOP-62) | GI50 (SK-MEL-28) | GI50 (SNB-19) | GI50 (SW-620) | GI50 (SF-295) | GI50 (UO-31) | GI50 (UACC-62) | GI50 (HL-60) | GI50 (SK-OV-3) | GI50 (HOP-92) | GI50 (NCI-H460) | GI50 (SNB-75) | GI50 (U-251) | GI50 (SF-539) | GI50 (OVCAR-3) | GI50 (MCF7)
CC1=NOC(=O)/C1=C/c1cccc2ccccc12 | > 100 µM (inactive) | > 100 µM (inactive) | > 100 µM (inactive) | > 100 µM (inactive) | > 100 µM (inactive) | > 100 µM (inactive) | 54 µM (inactive) | > 100 µM (inactive) | > 100 µM (inactive) | > 100 µM (inactive) | > 100 µM (inactive) | > 100 µM (inactive) | > 100 µM (inactive) | > 100 µM (inactive) | > 100 µM (inactive) | > 100 µM (inactive) | > 100 µM (inactive) | > 100 µM (inactive) | 
Cn1ccnc1C(c1nccn1C)C(C)(C)[N+](=O)[O-] | > 100 µM (inactive) | > 100 µM (inactive) | > 100 µM (inactive) | > 100 µM (inactive) | > 100 µM (inactive) |  | > 100 µM (inactive) | > 100 µM (inactive) |  | 12.4 µM (inactive) | > 100 µM (inactive) | > 100 µM (inactive) | > 100 µM (inactive) | > 100 µM (inactive) | > 100 µM (inactive) | > 100 µM (inactive) | > 100 µM (inactive) | > 100 µM (inactive) | 
O=C1OCC/C1=N/O | > 100 µM (inactive) | > 100 µM (inactive) |  |  | > 100 µM (inactive) |  | > 100 µM (inactive) | > 100 µM (inactive) | > 100 µM (inactive) | > 100 µM (inactive) | > 100 µM (inactive) | > 100 µM (inactive) | > 100 µM (inactive) | > 100 µM (inactive) | > 100 µM (inactive) | > 100 µM (inactive) | > 100 µM (inactive) | > 100 µM (inactive) | 
COc1ccc(/C=C(\NC(=O)c2ccccc2)c2nc3ccccc3[nH]2)cc1OC | > 100 µM (inactive) | > 100 µM (inactive) | > 100 µM (inactive) | > 100 µM (inactive) | > 100 µM (inactive) | > 100 µM (inactive) | > 100 µM (inactive) | > 100 µM (inactive) | 99.3 µM (inactive) | > 100 µM (inactive) | > 100 µM (inactive) | > 100 µM (inactive) | > 100 µM (inactive) | > 100 µM (inactive) | > 100 µM (inactive) | > 100 µM (inactive) | > 100 µM (inactive) | > 100 µM (inactive) | 
O=C1OC2C(O)COC2(O)C1(O)Cc1c[nH]c2ccccc12 (centres undefined) | > 100 µM (inactive) | > 100 µM (inactive) | > 100 µM (inactive) | > 100 µM (inactive) |  | > 100 µM (inactive) | > 100 µM (inactive) | > 100 µM (inactive) | > 100 µM (inactive) | > 100 µM (inactive) | > 100 µM (inactive) | > 100 µM (inactive) | > 100 µM (inactive) | > 100 µM (inactive) | > 100 µM (inactive) | > 100 µM (inactive) | > 100 µM (inactive) | > 100 µM (inactive) | 
CC1CC(=O)Nc2ccccc2N1C(=O)C1CC1 (centres undefined) |  | > 100 µM (inactive) | > 100 µM (inactive) | > 100 µM (inactive) | > 100 µM (inactive) | > 100 µM (inactive) | > 100 µM (inactive) | > 100 µM (inactive) | > 100 µM (inactive) |  | > 100 µM (inactive) | > 100 µM (inactive) | 19.5 µM (inactive) | > 100 µM (inactive) |  | > 100 µM (inactive) | > 100 µM (inactive) | > 100 µM (inactive) | > 100 µM (inactive)
CC1(C)O[C@@H](CCl)C[C@H](C#N)O1 | > 100 µM (inactive) | > 100 µM (inactive) | > 100 µM (inactive) | > 100 µM (inactive) | > 100 µM (inactive) | > 100 µM (inactive) | > 100 µM (inactive) | > 100 µM (inactive) | > 100 µM (inactive) | > 100 µM (inactive) | > 100 µM (inactive) | > 100 µM (inactive) | > 100 µM (inactive) | > 100 µM (inactive) | > 100 µM (inactive) | > 100 µM (inactive) | > 100 µM (inactive) | > 100 µM (inactive) | 
COc1ccc(NC(=S)N/N=C\c2ccc(NC(C)=O)cc2)cc1 | 14.2 µM (inactive) | > 100 µM (inactive) | > 100 µM (inactive) | > 100 µM (inactive) | > 100 µM (inactive) | > 100 µM (inactive) | > 100 µM (inactive) | > 100 µM (inactive) | > 100 µM (inactive) | > 100 µM (inactive) | 41.1 µM (inactive) | > 100 µM (inactive) | > 100 µM (inactive) | > 100 µM (inactive) | > 100 µM (inactive) | > 100 µM (inactive) |  | > 100 µM (inactive) | 
Cn1ncc2c(Nc3ccc(Cl)cc3)c3ccccc3nc21 | 14.9 µM (inactive) | > 10 µM (inactive) | 15.1 µM (inactive) | 16.4 µM (inactive) | 15.3 µM (inactive) | 18 µM (inactive) | 16.6 µM (inactive) | 17.7 µM (inactive) | > 10 µM (inactive) | 15.1 µM (inactive) | 23.4 µM (inactive) | 20.5 µM (inactive) | 17.6 µM (inactive) | 18.7 µM (inactive) | 10.8 µM (inactive) | 15.6 µM (inactive) | 15.6 µM (inactive) | 18.7 µM (inactive) | 
COc1ccc(Nc2nc3ccc(C(F)(F)F)cc3nc2-c2ccccc2)cc1OC | 21.4 µM (inactive) | 20.7 µM (inactive) | 16.1 µM (inactive) | > 100 µM (inactive) | > 100 µM (inactive) |  | 68.4 µM (inactive) | 17.4 µM (inactive) | 15.5 µM (inactive) | 66.8 µM (inactive) | 36.1 µM (inactive) | > 100 µM (inactive) | 1.08 µM (active) | 16.4 µM (inactive) | > 100 µM (inactive) | 34.1 µM (inactive) | 42.6 µM (inactive) | 54.7 µM (inactive) | 
COc1cc(OC)c(Oc2cccc(OC)c2OC)c(OC)c1 | > 100 µM (inactive) | > 100 µM (inactive) | > 100 µM (inactive) | > 100 µM (inactive) | > 100 µM (inactive) | 32.1 µM (inactive) | > 100 µM (inactive) | > 100 µM (inactive) | > 100 µM (inactive) | > 100 µM (inactive) |  | > 100 µM (inactive) | > 100 µM (inactive) | > 100 µM (inactive) | > 100 µM (inactive) | > 100 µM (inactive) | > 100 µM (inactive) | > 100 µM (inactive) | 
COC(=O)/C(C#N)=C1\NC(=O)c2ccccc21 | > 100 µM (inactive) | > 100 µM (inactive) | > 100 µM (inactive) | > 100 µM (inactive) | > 100 µM (inactive) | > 100 µM (inactive) | > 100 µM (inactive) | > 100 µM (inactive) | > 100 µM (inactive) | > 100 µM (inactive) | > 100 µM (inactive) | > 100 µM (inactive) | > 100 µM (inactive) | > 100 µM (inactive) | 2.4 µM (inactive) | > 100 µM (inactive) | > 100 µM (inactive) | > 100 µM (inactive) | 
Cc1ccc(-c2nnc(SCC(=O)O)[nH]2)cc1 | > 100 µM (inactive) | > 100 µM (inactive) |  | > 100 µM (inactive) | > 100 µM (inactive) | > 100 µM (inactive) | > 100 µM (inactive) | > 100 µM (inactive) | > 100 µM (inactive) | > 100 µM (inactive) | > 100 µM (inactive) | > 100 µM (inactive) | > 100 µM (inactive) | > 100 µM (inactive) | 78.5 µM (inactive) | > 100 µM (inactive) | > 100 µM (inactive) | > 100 µM (inactive) | 
C#Cc1cccc(N2C(=O)CCC2=O)c1 | 1.74 µM (inactive) | 18.3 µM (inactive) | 16.8 µM (inactive) | > 10 µM (inactive) | 18.1 µM (inactive) | 31.4 µM (inactive) | 5.61 µM (inactive) | 15.6 µM (inactive) | 17.7 µM (inactive) | 18.2 µM (inactive) | 2.25 µM (inactive) | 21 µM (inactive) |  | 27.5 µM (inactive) | 13.6 µM (inactive) | 1.67 µM (inactive) | 21.5 µM (inactive) | 18.9 µM (inactive) | 19.4 µM (inactive)
Clc1cccc(Cl)c1C1SCc2nc3ccccc3n21 (centres undefined) | 5.38 µM (inactive) | 78.3 µM (inactive) | > 100 µM (inactive) | > 100 µM (inactive) |  | > 100 µM (inactive) | 46.7 µM (inactive) | > 100 µM (inactive) | > 100 µM (inactive) | 50.1 µM (inactive) | 3.97 µM (inactive) | > 100 µM (inactive) | 9.48 µM (inactive) | 48.6 µM (inactive) | 88.3 µM (inactive) | > 100 µM (inactive) | > 100 µM (inactive) | > 100 µM (inactive) | 
Cn1cnc([N+](=O)[O-])c1Sc1nc2ccccc2[nH]1 | 10 µM (inactive) | 14.1 µM (inactive) | 22.7 µM (inactive) | > 100 µM (inactive) | 13.1 µM (inactive) | > 10 µM (inactive) | > 10 µM (inactive) | > 100 µM (inactive) | 19.9 µM (inactive) |  | 9.29 µM (inactive) | 21.7 µM (inactive) | 18.5 µM (inactive) | 22.4 µM (inactive) | 18.4 µM (inactive) | 20 µM (inactive) | 14.2 µM (inactive) | 31.9 µM (inactive) | 

From ChEMBL document CHEMBL1201862, “PubChem BioAssay data set” (2004)
